Patent US20240277767A1, “METHODS AND USES” (PROLEUKOCYTE AB, priority 2021, published 2024)
Entries after “also recorded” stand apart in the source; their conditions may differ.

Assays:
Assay type in all cases: cell-based, human
NK cells [1] = assay: [Cr51]-release assay: lysis of tumour target cells by pre-treated NK cells after H2O2 exposure
Excerpt: Peripheral blood samples (anonymized by-products of blood donations from healthy adult donors) were purchased from Karolinska University Hospital Blood Bank. Peripheral blood mononuclear cells (PBMC) were isolated from healthy donor buffy coats using density centrifugation with Ficoll® Paque Plus (GE Healthcare). NK cells and CD14^+ monocytes were isolated from PBMCs using NK cell isolation kit or CD14^+ microbeads, respectively (both Miltenyi Biotec), following the manufacturer's instructions. For NK cell expansion, a EBV-LCL feeder cell line was used, irradiated at 100 gy and then co-cultured with NK cells, at the ratio 10:1 LCL:NK, in X-Vivo 20 (Lonza) supplemented with 10% human AB serum and 1000 U/mL IL-2 (Proleukin). From day 6 or 10, NK cells were kept at 0.5×10^6 cells/mL or 1×10^6/mL, respectively. Purity of expanded NK cell was assessed at day 10 by flow cytometry, see below.
(§1) Lymphocytes were pre-treated for 18 h with Auranofin (AUF, with the concentration 1 μg/mL for NK cells and 0.5 μg/mL for TIL, if not indicated differently), DL-Sulforaphane (SUL) or Dimethyl Fumarate (DMF) (all Sigma-Aldrich) at indicated concentrations.
(§2) For Nrf2 inhibition, NK cells were treated with 50 μM ML-385 (Sigma-Aldrich) in parallel. For H2O2 treatment, lymphocyte cells were washed and resuspended to 1×10^6 cells/mL in medium and exposed to indicated H2O2 (Sigma-Aldrich) concentration for 1 h at 37° C. Cells were washed with medium and then used for further experiments. For monocyte experiments, autologous NK cell-monocytes or TIL-monocytes were used. NK cells/TIL were isolated and pre-treated with 0.5 μg/mL AUF, as described above, and co-cultured with unstimulated at the ratio, 1:2 M:NK, or stimulated monocytes at the ratio, 1:1 M:NK, if not indicated otherwise. Stimulated monocytes were activated with 100 ng/ml PMA for 1 min, washed and added at indicated ratio, the number of NK cell/TIL was kept constant. As control, H2O2 was used at indicated concentration. Cells were co-cultured for 2 h and then effector cells were stained for intracellular ROS (see flow cytometry) or used as effector cells in Cr^51 release assay (E:T ratio 10:1).
(§3) For cytotoxic assay, a standard 4 h [Cr^51]-release assay was used. Briefly, tumour cells were harvested and labeled with 51Cr (PerkinElmer) and used as target cells. Effector cells, NK cells and T cells, were co-cultured in 96-well V-bottom plate with indicated tumour cells at the stated effector target ratio (E:T). The supernatant was collected onto LUMA plates (Perkin-Elmer) and radioactivity/tumour cell lysis was detected by MicroBeta2 (Perkin Elmer). Target cell killing measured by % specific lysis and calculated using the formula: ((experimental release-spontaneous release)/(maximum release-spontaneous release))*100.
Lymphocytes were pre-treated for 18 h with Auranofin (AUF, with the concentration 1 μg/mL for NK cells and 0.5 μg/mL for TIL. As AUF was reconstituted in DMSO, control NK cells were pre-treated with DMSO with an equivalent volume to the highest compound concentration. For N-acetylcysteine (NAC, Invitrogen) treatment, DMSO pre-treated cells were incubated for 1 h with 5 or 10 mM NAC prior to H2O2 treatment. For H2O2 treatment, lymphocytes were washed and resuspended to 1×10^6 cells/mL in RPMI containing the indicated H2O2 (Sigma-Aldrich) concentration for 1 h at 37° C. 5% CO2. Cells were washed with medium and then used for further experiments.

NK cells [2] = assay: NK cells co-cultured with PMA-activated autologous monocytes: intracellular ROS and K562 lysis
Protocol: as §2
Monocytes were stimulated with 100 ng/ml PMA for 1 min and washed with HBSS (Gibco). Cells were resuspended in HBSS 5% FBS and added to a 96-well Optiplate (Perkin Elmer) containing HBSS 5% FBS and Luminol (56 μM; Sigma). Luminescence was measured immediately using a EnSpire plate reader (Perkin Elmer).
For detection of intracellular ROS levels, for NK cells CellROX™ Deep Red Reagent (Invitrogen) were used. Briefly, NK cells were stained with 2.5 μM CellROX solution in RPMI for 30 min at 37° C. and then stained for flow cytometry with anti-CD56 and anti-CD3 (both Biolegend).
as §3

[3] = system: tumour infiltrating lymphocytes (TIL); assay: IFNγ release by pre-treated TIL on autologous tumour cells after H2O2 treatment; settings: KADA and ANRU melanoma TIL, E:T 4:1, vs control group
Protocol: ., 2020). […] For Nrf2 inhibition, NK cells were treated with 50 μM ML-385 (Sigma-Aldrich) in parallel. […] Cells were washed with medium and then used for further experiments. For monocyte experiments, autologous NK cell-monocytes or TIL-monocytes were used. […] Stimulated monocytes were activated with 100 ng/ml PMA for 1 min, washed and added at indicated ratio, the number of NK cell/TIL was kept constant. […] For cytokine release assay, NK cells and TIL were cultured with indicated tumour cells at the effector target ratio 4:1 (E:T) for 24 h in U-bottom plates. IFNγ secretion was measured using human IFN-γ ELISA development kit (Mabtech) following the manufacturer's instructions.

ANRU TIL [4] = assay: 3D killing assay: ANRU TIL on autologous tumour spheroids (Caspase 3/7, live cell imaging); settings: 48 h co-culture, vs controls
Protocol: 5000 ANRU tumour cells were seeded per well in Ultra-Low Attachment 96-well plates (Corning Costar) in culture medium containing 2% Matrigel (Corning) for 3 days. 1×10^4AUF pre-treated TIL (see above), and spheroids were co-cultured and monitored for 48 h with the IncuCyte live cell imaging system (Essen Bioscience) in the presence of CellEvent™ Caspase 3/7 Green detection agent (Invitrogen).

ANRU TIL [5] = assay: Viability of pre-treated ANRU TIL after H2O2 exposure (flow cytometry); settings: 24 h co-culture with ANRU tumour cells, alive CD3+ T cells
Protocol: as §1
as §2, with “Cells were co-cultured for 2 h and then effector cells were stained for intracellular ROS (see flow cytometry) or used as effector cells in Cr^51 release assay (E:T ratio 10:1).” left out
All antibodies (see Table 1) and FACS reagents were used according to manufactures recommendation, if not stated otherwise. […] Samples were fixed with 2% PFA (Thermo scientific) for 15 min before acquired on a NovoCyte (ACEA Biosciences) and analysed using FlowJo Software (TreeStar).

In the case of CC(=O)OC[C@H]1O[C@@H]([S-])[C@H](OC(C)=O)[C@@H](OC(C)=O)[C@@H]1OC(C)=O.CCP(CC)CC.[Au+] [AUF, Auranofin], the “Lysis of K562 target cells by pre-treated NK cells after H2O2 exposure” value (NK cells [1]; 18 h pre-treatment, H2O2 1 h up to 250 μM, E:T 9:1, vs control NK cells) is reported as “counteracted; also recorded: strong protective effect against ROS”, the “Effector functions of NK cells (K562 lysis) vs controls” value (NK cells [1]; 72 h after AUF removal, E:T 3:1) is reported as “no differences” and the “Killing of KASUMI-1 cells by pre-treated NK cells” value (NK cells [1]; AML cell line KASUMI-1, H2O2, E:T 9:1) is reported as “significantly increased killing”. For the same compound, the “Killing of THP-1 cells by pre-treated NK cells” value (NK cells [1]; AML cell line THP-1, H2O2, E:T 9:1) was “significantly increased killing”, the “Time after start of pre-treatment with most pronounced protection of functional cytotoxicity capacity” value (NK cells [1]; NK cells, K562 lysis, H2O2, E:T 9:1) was “around 18 h” and the “Lysis of K562 by AUF pre-treated NK cells despite addition of ML385” value (NK cells [1]; compared to untreated controls) was “lysis was increased”. For the same compound, the “Suppressive effect of H2O2 on lymphocyte function (killing, degranulation, IFNγ)” value (NK cells [1]; expanded NK cells and patient derived TIL, pre-treatment) was “counteracts the suppressive effect of H2O2 on lymphocyte function”, the “Duration of improved NK cell and TIL tolerance towards oxidative stress” value (NK cells [1]; post pre-treatment) was “up to two to three days” and the “Dependence of the protective effect on Nrf2 activation” value (NK cells [1]; qPCR of Nrf2 target genes and K562 lysis with/without Nrf2 inhibitor ML385) was “dependent on Nrf2 activation”. The “Effector functions of NK cells (K562 lysis)” value (NK cells [1]; up to 48 h after AUF removal, E:T 3:1) was “significantly improved effector functions”, the “Effector function of NK cells and TIL after H2O2 treatment” value (NK cells [1]; up to 72 h after compound removal) was “increased effector function” and the “Protection of NK cells from monocyte-derived ROS” value (NK cells [2]) was “protects NK cells from monocyte-derived ROS”. The “Intracellular ROS in NK cells co-cultured with activated monocytes” value (NK cells [2]; 0.5 μg/mL AUF, 2 h co-culture, vs controls) was “significantly lower levels of intracellular ROS”, the “Killing of K562 target cells by NK cells co-cultured with activated monocytes” value (NK cells [2]; also at the highest monocyte to NK cell ratio) was “significantly higher efficiency” and the “Recognition of autologous tumour cells by TIL (IFNγ production) upon exposure to H2O2” value [3] was “increased recognition of their autologous tumour cells”. For the same compound, the “Capacity of ANRU TIL to induce apoptosis in spheroid tumour cells (Caspase 3/7)” value (ANRU TIL [4]) was “significantly increased capacity to induce apoptosis” and the “Viability of ANRU TIL after exposure to H2O2” value (ANRU TIL [5]) was “improved viability”.
